Here are results for 26 compounds from PubChem BioAssay AID328 (DTP/NCI, 2004).

Where “and” joins values, the source holds several entries; their conditions need not be identical. Equal values may be shown once. Inconclusive results and toxic doses are left out.

This assay relates to BDF1 mice, P388 leukemia ip, median survival T/C. Briefly: NCI In Vivo Anticancer Drug Screen. Data for tumor model P388 Leukemia (intraperitoneal) in B6D2F1 (BDF1) mice. The settings on record: endpoint: median survival time, higher = longer survival. The method in brief: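 Steps: implant the tumour, treat one group with compound and another with vehicle, record survival, then divide treated by control.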

Where [1] appears, read: dose: 100.0 mg/kg/injection, schedule: Q04DX003 (ip), vehicle: saline.
The mark [2] stands for this setting: dose: 200.0 mg/kg/injection, schedule: Q04DX003 (ip), vehicle: saline.
The mark [3] stands for this setting: dose: 50.0 mg/kg/injection, schedule: Q01DX009 (ip), vehicle: saline with Tween-80.
[4] abbreviates: dose: 25.0 mg/kg/injection, schedule: Q04DX003 (ip), vehicle: saline with Tween-80.
Where [5] appears, read: dose: 100.0 mg/kg/injection, schedule: Q01DX009 (ip), vehicle: saline with Tween-80.
Where [6] appears, read: dose: 200.0 mg/kg/injection, schedule: Q01DX009 (ip), vehicle: saline with Tween-80.
[7] abbreviates: dose: 400.0 mg/kg/injection, schedule: Q01DX009 (ip), vehicle: saline with Tween-80.
Setting [8] is: dose: 100.0 mg/kg/injection, schedule: Q04DX003 (ip), vehicle: saline with Tween-80.
The mark [9] stands for this setting: dose: 200.0 mg/kg/injection, schedule: Q04DX003 (ip), vehicle: saline with Tween-80.
[10] abbreviates: dose: 400.0 mg/kg/injection, schedule: Q04DX003 (ip), vehicle: saline with Tween-80.
Setting [11] is: dose: 100.0 mg/kg/injection, schedule: Q01DX009 (ip), vehicle: Klucel (hydroxypropylcellulose) (HPC).
Where [12] appears, read: dose: 400.0 mg/kg/injection, schedule: Q04DX003 (ip), vehicle: saline.
Setting [13] is: dose: 50.0 mg/kg/injection, schedule: Q01DX009 (ip), vehicle: saline.
The mark [14] stands for this setting: dose: 100.0 mg/kg/injection, schedule: Q01DX009 (ip), vehicle: saline.
The mark [15] stands for this setting: dose: 200.0 mg/kg/injection, schedule: Q01DX009 (ip), vehicle: saline.

For `CCCCNP(=O)(N1CC1)N1CC1`, the T/C is 116 % of control (dose: 8.0 mg/kg/injection, schedule: Q04DX003 (ip), vehicle: saline with Tween-80); 154 % of control (dose: 8.25 mg/kg/injection, schedule: Q04DX003 (ip), vehicle: saline with Tween-80); 100 % of control (dose: 12.0 mg/kg/injection, schedule: Q04DX003 (ip), vehicle: saline with Tween-80); 190 % of control (dose: 12.5 mg/kg/injection, schedule: Q04DX003 (ip), vehicle: saline with Tween-80); 218 % of control (dose: 18.75 mg/kg/injection, schedule: Q04DX003 (ip), vehicle: saline with Tween-80).

With `NOCc1ccccc1CON`, the T/C reads like this: (dose: 37.5 mg/kg/injection, schedule: Q04DX003 (ip), vehicle: saline) 108 % of control; (dose: 75.0 mg/kg/injection, schedule: Q04DX003 (ip), vehicle: saline) 95 % of control; (dose: 150.0 mg/kg/injection, schedule: Q04DX003 (ip), vehicle: saline) 100 % of control.

`CCOC(=O)C1CC1C(=O)O` (centres undefined): the T/C under setting [1] is 103 % of control and the T/C under setting [2] was 114 % of control.

In the case of `C[As](C)SCC1OC2OC(C)(C)OC2C2OC(C)(C)OC12` (centres undefined), the T/C under setting [3] is 110 % of control and 123 % of control.

As for `CN(c1ccccc1)P(=O)(N1CC1)N1CC1`, the T/C reads like this: under setting [4], 172 % of control; (dose: 37.5 mg/kg/injection, schedule: Q04DX003 (ip), vehicle: saline with Tween-80) 250 % of control.

Regarding `COc1ccc(OC)c2c1C(=O)c1ccccc1C2=O`, the T/C is 100 % of control (dose: 25.0 mg/kg/injection, schedule: Q01DX009 (ip), vehicle: saline with Tween-80); 105 % of control under setting [3]; 90 % of control under setting [5]; 106 % of control under setting [6]; 103 % of control under setting [7].

With `NC(Cc1cccs1)C(=O)O` (centres undefined), the T/C is, setting by setting: under setting [5], 100 % of control; under setting [6], 110 % of control; under setting [7], 110 % of control.

For the compound `O=C(O)CC/C(=N\O)c1cccc([N+](=O)[O-])c1`, the T/C was 100 % of control under setting [8], 100 % of control under setting [9] and 95 % of control under setting [10].

Regarding `Clc1ccc(N=C/C=C\C=C/Nc2ccc(Cl)cc2)cc1`, where the note is “dose: 20.0 mg/kg/injection, schedule: Q01DX009 (ip), vehicle: saline with Tween-80”, the T/C was 91 % of control.

As to `COc1cc([N+](=O)[O-])c(/C=C2/c3cc(OC)c(OC)cc3CCN2C)cc1Br`, the T/C runs as follows: under setting [11], 109 % of control; (dose: 100.0 mg/kg/injection, schedule: Q04DX003 (ip), vehicle: Klucel (hydroxypropylcellulose) (HPC)) 100 % of control; (dose: 200.0 mg/kg/injection, schedule: Q01DX009 (ip), vehicle: Klucel (hydroxypropylcellulose) (HPC)) 90 % of control; (dose: 200.0 mg/kg/injection, schedule: Q04DX003 (ip), vehicle: Klucel (hydroxypropylcellulose) (HPC)) 100 % of control; (dose: 400.0 mg/kg/injection, schedule: Q01DX009 (ip), vehicle: Klucel (hydroxypropylcellulose) (HPC)) 104 % of control; (dose: 400.0 mg/kg/injection, schedule: Q04DX003 (ip), vehicle: Klucel (hydroxypropylcellulose) (HPC)) 100 % of control.

For the compound `COc1ccccc1C(=O)c1ccccc1Cc1cccc2ccccc12`, the T/C runs as follows: under setting [3], 92 % of control; under setting [5], 92 % of control; under setting [6], 92 % of control; under setting [7], 97 % of control.

Take `CC(=O)OCCCC/C(=C/c1cc2ccccc2c2ccccc12)[N+](=O)[O-]`: the T/C is, setting by setting: (dose: 50.0 mg/kg/injection, schedule: Q01DX009 (ip), vehicle: Klucel (hydroxypropylcellulose) (HPC)) 100 % of control; under setting [11], 100 % of control.

Take `COc1ccc(CCNC(=O)Cc2ccccc2)cc1OC`: the T/C is 95 % of control under setting [5]; 109 % of control under setting [8]; 90 % of control under setting [6]; 100 % of control under setting [9]; 100 % of control under setting [7]; 100 % of control under setting [10].

Turning to `O=C1c2cccc(O)c2C(=O)c2c(O)cccc21`, the T/C was 100 % of control and 109 % of control under setting [1]; 109 % of control under setting [2]; 95 % of control and 118 % of control under setting [12].

`CCc1nnc2sc3c(Cl)c4nn5c(CC)nnc5sc4c(Cl)c3nn12`: the T/C was 114 % of control under setting [3], 118 % of control under setting [5] and 98 % of control under setting [6].

For the compound `O=C(O)C(=O)O.[U]`, the T/C under setting [4] is 100 % of control.

`O=C1C2C(c3cc4ccccc4n31)N2c1ccccc1` (centres undefined): the T/C runs as follows: (dose: 0.03 mg/kg/injection, schedule: Q01DX010 (ip), vehicle: water) 110 % of control; (dose: 0.06 mg/kg/injection, schedule: Q01DX010 (ip), vehicle: water) 94 % of control; (dose: 0.13 mg/kg/injection, schedule: Q01DX010 (ip), vehicle: water) 94 % of control; (dose: 0.25 mg/kg/injection, schedule: Q01DX010 (ip), vehicle: water) 94 % of control; (dose: 0.5 mg/kg/injection, schedule: Q01DX010 (ip), vehicle: water) 105 % of control; (dose: 1.0 mg/kg/injection, schedule: Q01DX010 (ip), vehicle: water) 105 % of control. Where the note is “dose: 2.0 mg/kg/injection, schedule: Q01DX010 (ip), vehicle: water”, the T/C is 105 % of control.

Take `CCCCCCCCCC(=O)NN`: the T/C runs as follows: (dose: 50.0 mg/kg/injection, schedule: Q01DX001 (ip), vehicle: saline sonified) 95 % of control; (dose: 100.0 mg/kg/injection, schedule: Q01DX001 (ip), vehicle: saline sonified) 104 % of control; (dose: 200.0 mg/kg/injection, schedule: Q01DX001 (ip), vehicle: saline sonified) 104 % of control.

For `CC(=O)OCc1ccc(Cl)cc1`, the T/C is 116 % of control under setting [3] and 112 % of control under setting [5].

Regarding `Cc1ccc(Cl)cc1O`, the T/C was 100 % of control under setting [3]; 96 % of control under setting [5]; 104 % of control (dose: 200.0 mg/kg/injection, schedule: Q04DX003 (ip), vehicle: saline + alcohol); 104 % of control (dose: 300.0 mg/kg/injection, schedule: Q04DX003 (ip), vehicle: saline + alcohol); 91 % of control (dose: 450.0 mg/kg/injection, schedule: Q04DX003 (ip), vehicle: saline + alcohol).

Regarding `CCCCNC(=S)Nc1sc(C)c(C)c1C(=O)OCC`, the T/C by setting is: under setting [8], 106 % of control; under setting [9], 99 % of control; under setting [10], 99 % of control.

In the case of `COc1ccc(C(=O)CC(C#N)c2ccc3c(c2)OCO3)cc1OC` (centres undefined), the T/C is 90 % of control under setting [5], 100 % of control under setting [6] and 95 % of control under setting [7].

Turning to `N#Cc1cn[nH]c1N`, the T/C by setting is: under setting [13], 100 % of control; under setting [14], 109 % of control; under setting [15], 98 % of control.

In the case of `CCOC(=O)c1c[nH]c(=O)c([N+](=O)[O-])c1O`, the T/C runs as follows: under setting [5], 96 % of control; under setting [8], 108 % of control; under setting [9], 95 % of control; under setting [10], 112 % of control.

Consider `Nc1ccc(C(=O)Nc2ccc(Nc3ccncc3)cc2)c([N+](=O)[O-])c1`, for which the T/C is 97 % of control (dose: 12.5 mg/kg/injection, schedule: Q01DX009 (ip), vehicle: saline); 97 % of control (dose: 25.0 mg/kg/injection, schedule: Q01DX009 (ip), vehicle: saline); 119 % of control under setting [13]; 94 % of control (dose: 50.0 mg/kg/injection, schedule: Q04DX003 (ip), vehicle: saline); 90 % of control (dose: 75.0 mg/kg/injection, schedule: Q01DX009 (ip), vehicle: saline); 108 % of control under setting [14]. The T/C is, setting by setting: under setting [1], 100 % of control; under setting [15], 111 % of control; under setting [2], 92 % of control; (dose: 400.0 mg/kg/injection, schedule: Q01DX009 (ip), vehicle: saline) 111 % of control; under setting [12], 92 % of control.

As to `CC1=CC(=O)C=CC1(C)C(Cl)Cl` (centres undefined), the T/C under setting [8] was 90 % of control, the T/C under setting [9] is 105 % of control and the T/C under setting [10] is 100 % of control.
